As usually defined, the Km is the concentration of substrate that gives half-maximal velocity.

The structures appear in SMILES notation.

Consider 8 compounds from publication PMC7838199, “Color-tunable bioluminescence imaging portfolio for cell imaging” (Scientific Reports, 2021).

T1 sequence (Q9GV45 28-196 with the stated changes): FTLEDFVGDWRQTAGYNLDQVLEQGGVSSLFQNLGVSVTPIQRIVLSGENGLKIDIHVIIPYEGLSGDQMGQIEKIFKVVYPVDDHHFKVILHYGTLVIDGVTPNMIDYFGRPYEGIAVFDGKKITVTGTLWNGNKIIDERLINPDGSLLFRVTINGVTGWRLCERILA

The first experiment addresses T1, NanoLuc (Oplophorus gracilirostris, UniProt Q9GV45, A31E/Q38R/Q45L/L54V/A60N/K70R/V71I/A81I/F95D/L99Q/M102K/I117V/P142E/Q151K/Y165I/N193R).
T1 construct: pcDNA3.1(+) in MDA-MB-231 cells, lysate
Briefly: bioluminescence spectrum in transfected-cell lysate. Format: cell-based. Conditions: 50 mM HEPES, pH 7.2; MDA-MB-231 lysate.
For `O=c1c(Cc2ccccc2)nc2c(-c3ccccc3)[nH]c(-c3ccccc3)cn1-2` [3d], the “bioluminescence spectrum in transfected-cell lysate” value is recorded as 3d selectively emits significant BL with NanoLuc.

Another experiment has as its system T2, Artificial Luciferase 16 (ALuc16).
T2 construct: designed artificial luciferase; recombinant for the kinetics; cDNA in pcDNA3.1(+) for cell work
Briefly: bioluminescence, Lineweaver-Burk. It is filed as biochemical, synthetic construct. Conditions: 50 mM HEPES, pH 7.2; 0.1 µM luciferase. An excerpt: bioluminescence, Lineweaver-Burk on Artificial Luciferase 16 (ALuc16)
As for `CN(C)c1ccc(/C=C/c2cn3c(=O)c(Cc4ccc(O)cc4)nc-3c(Cc3ccccc3)[nH]2)cc1` [1b], the Km came out at 7.9 µM.

In the case of `CN(C)c1ccc(/C=C/C=C/c2cn3c(=O)c(Cc4ccc(O)cc4)nc-3c(Cc3ccccc3)[nH]2)cc1` [1c], the Km amounted to 26.1 µM.

For the compound `CN(C)c1ccc(/C=C/C=C/C=C/c2cn3c(=O)c(Cc4ccc(O)cc4)nc-3c(Cc3ccccc3)[nH]2)cc1` [1d], the Km turned out to be 70.6 µM.

For `CN(C)c1ccc(/C=C/C=C/c2cn3c(=O)c(Cc4ccccc4)nc-3c(-c3ccccc3)[nH]2)cc1` [2c], the Km is 157 µM. Turning to `CN(C)c1ccc(/C=C/C=C/C=C/c2cn3c(=O)c(Cc4ccccc4)nc-3c(-c3ccccc3)[nH]2)cc1` [2d], the Km amounted to 86.5 µM. Turning to `O=c1c(Cc2ccccc2)nc2c(-c3ccccc3)[nH]c(-c3ccncc3)cn1-2` [3c], the Km was 68.3 µM.

`O=c1c(Cc2ccccc2)nc2c(-c3ccccc3)[nH]c(-c3ccccc3)cn1-2` [3d]: the Km came out at 120 µM. In the case of `Oc1ccc(Cc2nc3c(Cc4ccccc4)nc(-c4ccc(O)cc4)cn3c2O)cc1` [CTZ, coelenterazine], the Km came out at 38.5 µM.
